# Test results from ChEMBL document CHEMBL1201862, “PubChem BioAssay data set” (2004).
#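 Values below derive from 48-hour exposures of cells grown in 96-well plates, with endpoints linearly interpolated between the two concentrations bracketing the appropriate inhibition level. GI50 = concentration required for 50% inhibition of growth.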 Calls of active or inactive are those of the source. No stated cut-off is given here; in the data, active = GI50 up to about 1.1 µM and inactive = higher.
# Legend:
# Assay in all cases: growth of human tumour cells (NCI), 48 h
# 786-0 = test system: 786-0
# A549 = test system: A549
# ACHN = test system: ACHN
# CAKI-1 = test system: CAKI-1
# CCRF-CEM = test system: CCRF-CEM
# COLO 205 = test system: COLO 205
# DLD-1 = test system: DLD-1
# DMS-114 = test system: DMS-114
# EKVX = test system: EKVX
# HCC 2998 = test system: HCC 2998
# HCT-15 = test system: HCT-15
# HOP-92 = test system: HOP-92
# HT-29 = test system: HT-29
# IGROV-1 = test system: IGROV-1
# K562 = test system: K562
# KM-20L2 = test system: KM-20L2
# KM12 = test system: KM12
# LXFL 529 = test system: LXFL 529
# M14 = test system: M14
# M19-MEL = test system: M19-MEL
# MOLT-4 = test system: MOLT-4
# Malme-3M = test system: Malme-3M
# NCI-H23 = test system: NCI-H23
# NCI-H522 = test system: NCI-H522
# OVCAR-3 = test system: OVCAR-3
# OVCAR-4 = test system: OVCAR-4
# OVCAR-5 = test system: OVCAR-5
# OVCAR-8 = test system: OVCAR-8
# RXF 393 = test system: RXF 393
# RXF 631 = test system: RXF 631
# SF-268 = test system: SF-268
# SF-295 = test system: SF-295
# SF-539 = test system: SF-539
# SK-MEL-28 = test system: SK-MEL-28
# SK-MEL-2 = test system: SK-MEL-2
# SK-MEL-5 = test system: SK-MEL-5
# SK-OV-3 = test system: SK-OV-3
# SN12C = test system: SN12C
# SNB-19 = test system: SNB-19
# SNB-78 = test system: SNB-78
# SR = test system: SR
# SW-620 = test system: SW-620
# TK-10 = test system: TK-10
# U-251 = test system: U-251
# UACC-62 = test system: UACC-62
# UO-31 = test system: UO-31
# XF498 = test system: XF498
# A498 = test system: A498
# DMS-273 = test system: DMS-273
# HCT-116 = test system: HCT-116
# HL-60 = test system: HL-60
# HOP-18 = test system: HOP-18
# HOP-62 = test system: HOP-62
# LOX IMVI = test system: LOX IMVI
# NCI-H226 = test system: NCI-H226
# NCI-H460 = test system: NCI-H460
# RPMI-8226 = test system: RPMI-8226
# SNB-75 = test system: SNB-75
# UACC-257 = test system: UACC-257
compound,measurement,setting,value
O=C1OC(c2ccccc2)=N/C1=C/C=C/c1ccco1,GI50,786-0,> 100 µM (inactive)
same,GI50,A549,> 100 µM (inactive)
same,GI50,ACHN,> 100 µM (inactive)
same,GI50,CAKI-1,> 100 µM (inactive)
same,GI50,CCRF-CEM,> 100 µM (inactive)
same,GI50,COLO 205,> 100 µM (inactive)
same,GI50,DLD-1,> 100 µM (inactive)
same,GI50,DMS-114,> 100 µM (inactive)
same,GI50,EKVX,> 100 µM (inactive)
same,GI50,HCC 2998,> 100 µM (inactive)
same,GI50,HCT-15,> 100 µM
same,GI50,HOP-92,> 100 µM (inactive)
same,GI50,HT-29,> 100 µM (inactive)
same,GI50,IGROV-1,> 100 µM (inactive)
same,GI50,K562,> 100 µM (inactive)
same,GI50,KM-20L2,> 100 µM (inactive)
same,GI50,KM12,> 100 µM (inactive)
same,GI50,LXFL 529,> 100 µM (inactive)
same,GI50,M14,> 100 µM (inactive)
same,GI50,M19-MEL,> 100 µM (inactive)
same,GI50,MOLT-4,> 100 µM (inactive)
same,GI50,Malme-3M,> 100 µM (inactive)
same,GI50,NCI-H23,> 100 µM (inactive)
same,GI50,NCI-H522,> 100 µM (inactive)
same,GI50,OVCAR-3,> 100 µM (inactive)
same,GI50,OVCAR-4,> 100 µM (inactive)
same,GI50,OVCAR-5,> 100 µM (inactive)
same,GI50,OVCAR-8,> 100 µM (inactive)
same,GI50,RXF 393,> 100 µM (inactive)
same,GI50,RXF 631,> 100 µM (inactive)
same,GI50,SF-268,> 100 µM (inactive)
same,GI50,SF-295,> 100 µM (inactive)
same,GI50,SF-539,> 100 µM (inactive)
same,GI50,SK-MEL-28,> 100 µM (inactive)
same,GI50,SK-MEL-2,> 100 µM (inactive)
same,GI50,SK-MEL-5,> 100 µM (inactive)
same,GI50,SK-OV-3,> 100 µM (inactive)
same,GI50,SN12C,> 100 µM (inactive)
same,GI50,SNB-19,> 100 µM (inactive)
same,GI50,SNB-78,> 100 µM (inactive)
same,GI50,SR,> 100 µM (inactive)
same,GI50,SW-620,> 100 µM (inactive)
same,GI50,TK-10,> 100 µM (inactive)
same,GI50,U-251,> 100 µM (inactive)
same,GI50,UACC-62,> 100 µM (inactive)
same,GI50,UO-31,> 100 µM (inactive)
same,GI50,XF498,> 100 µM (inactive)
O=C(c1ccccc1)N1C2CCC1C(C(F)(F)F)=C2C(F)(F)F,GI50,786-0,> 100 µM (inactive)
same,GI50,A498,> 100 µM (inactive)
same,GI50,A549,> 100 µM (inactive)
same,GI50,CAKI-1,> 100 µM (inactive)
same,GI50,CCRF-CEM,> 100 µM (inactive)
same,GI50,COLO 205,> 100 µM (inactive)
same,GI50,DLD-1,> 100 µM (inactive)
same,GI50,DMS-114,> 100 µM (inactive)
same,GI50,DMS-273,> 100 µM (inactive)
same,GI50,EKVX,> 100 µM (inactive)
same,GI50,HCC 2998,> 100 µM (inactive)
same,GI50,HCT-116,> 100 µM (inactive)
same,GI50,HCT-15,> 100 µM
same,GI50,HL-60,45.7 µM (inactive)
same,GI50,HOP-18,> 100 µM (inactive)
same,GI50,HOP-62,> 100 µM (inactive)
same,GI50,HOP-92,> 100 µM (inactive)
same,GI50,HT-29,> 100 µM (inactive)
same,GI50,IGROV-1,> 100 µM (inactive)
same,GI50,K562,> 100 µM (inactive)
same,GI50,KM-20L2,> 100 µM (inactive)
same,GI50,KM12,> 100 µM (inactive)
same,GI50,LOX IMVI,> 100 µM (inactive)
same,GI50,LXFL 529,> 100 µM (inactive)
same,GI50,M14,> 100 µM (inactive)
same,GI50,M19-MEL,> 100 µM (inactive)
same,GI50,MOLT-4,> 100 µM (inactive)
same,GI50,Malme-3M,> 100 µM (inactive)
same,GI50,NCI-H226,> 100 µM (inactive)
same,GI50,NCI-H23,> 100 µM (inactive)
same,GI50,NCI-H460,> 100 µM (inactive)
same,GI50,NCI-H522,> 100 µM (inactive)
same,GI50,OVCAR-3,> 100 µM (inactive)
same,GI50,OVCAR-4,> 100 µM (inactive)
same,GI50,OVCAR-5,> 100 µM (inactive)
same,GI50,OVCAR-8,> 100 µM (inactive)
same,GI50,RPMI-8226,> 100 µM (inactive)
same,GI50,RXF 393,> 100 µM (inactive)
same,GI50,RXF 631,> 100 µM (inactive)
same,GI50,SF-268,> 100 µM (inactive)
same,GI50,SF-295,> 100 µM (inactive)
same,GI50,SF-539,> 100 µM (inactive)
same,GI50,SK-MEL-5,> 100 µM (inactive)
same,GI50,SK-OV-3,> 100 µM (inactive)
same,GI50,SN12C,> 100 µM (inactive)
same,GI50,SNB-19,> 100 µM (inactive)
same,GI50,SNB-75,> 100 µM (inactive)
same,GI50,SNB-78,> 100 µM (inactive)
same,GI50,SR,> 100 µM (inactive)
same,GI50,SW-620,> 100 µM (inactive)
same,GI50,TK-10,> 100 µM (inactive)
same,GI50,U-251,> 100 µM (inactive)
same,GI50,UACC-257,> 100 µM (inactive)
same,GI50,UACC-62,> 100 µM (inactive)
same,GI50,UO-31,> 100 µM (inactive)
O=P(Nc1ccc(Cl)cc1)(Oc1ccccc1)N(CCCl)CCCl (stereo not drawn),GI50,A498,> 100 µM (inactive)
same,GI50,A549,> 100 µM (inactive)
same,GI50,ACHN,> 100 µM (inactive)
same,GI50,CAKI-1,> 100 µM (inactive)
same,GI50,CCRF-CEM,> 100 µM (inactive)
same,GI50,COLO 205,> 100 µM (inactive)
same,GI50,DLD-1,> 100 µM (inactive)
same,GI50,DMS-114,> 100 µM (inactive)
same,GI50,DMS-273,> 100 µM (inactive)
same,GI50,EKVX,> 100 µM (inactive)
same,GI50,HCC 2998,> 100 µM (inactive)
same,GI50,HCT-116,> 100 µM (inactive)
same,GI50,HCT-15,> 100 µM
same,GI50,HOP-18,> 100 µM (inactive)
same,GI50,HOP-62,> 100 µM (inactive)
same,GI50,HOP-92,> 100 µM (inactive)
same,GI50,HT-29,> 100 µM (inactive)
same,GI50,IGROV-1,> 100 µM (inactive)
same,GI50,K562,> 100 µM (inactive)
same,GI50,KM-20L2,> 100 µM (inactive)
same,GI50,KM12,> 100 µM (inactive)
same,GI50,LXFL 529,> 100 µM (inactive)
same,GI50,M14,> 100 µM (inactive)
same,GI50,M19-MEL,> 100 µM (inactive)
same,GI50,MOLT-4,> 100 µM (inactive)
same,GI50,Malme-3M,> 100 µM (inactive)
same,GI50,NCI-H226,> 100 µM (inactive)
same,GI50,NCI-H23,> 100 µM (inactive)
same,GI50,NCI-H522,> 100 µM (inactive)
same,GI50,OVCAR-3,> 100 µM (inactive)
same,GI50,OVCAR-4,> 100 µM (inactive)
same,GI50,OVCAR-5,> 100 µM (inactive)
same,GI50,OVCAR-8,> 100 µM (inactive)
same,GI50,RXF 631,63.7 µM (inactive)
same,GI50,SF-268,> 100 µM (inactive)
same,GI50,SF-295,> 100 µM (inactive)
same,GI50,SF-539,> 100 µM (inactive)
same,GI50,SK-MEL-28,> 100 µM (inactive)
same,GI50,SK-MEL-2,35.5 µM (inactive)
same,GI50,SK-MEL-5,> 100 µM (inactive)
same,GI50,SK-OV-3,> 100 µM (inactive)
same,GI50,SN12C,> 100 µM (inactive)
same,GI50,SNB-75,33.7 µM (inactive)
same,GI50,SNB-78,> 100 µM (inactive)
same,GI50,SR,> 100 µM (inactive)
same,GI50,SW-620,> 100 µM (inactive)
same,GI50,TK-10,> 100 µM (inactive)
same,GI50,U-251,> 100 µM (inactive)
same,GI50,UACC-257,> 100 µM (inactive)
same,GI50,UACC-62,> 100 µM (inactive)
same,GI50,UO-31,> 100 µM (inactive)
